# Assay results taken from patent publication US20170027896A1, “METHODS AND COMPOSITIONS FOR THE TREATMENT OF VASCULAR MALFORMATION” (IFOM - FONDAZIONE ISTITUTO FIRC DI ONCOLOGIA MOLECOLARE, priority 2014, published 2017).
# Entries after “also recorded” stand apart in the source; their conditions may differ. Like-named read-outs stand apart in the source and are kept apart here.
# Columns and labels:
# [1] = system: CCM3-ECKO mice; experiment: Bleeding and mortality in drug-treated CCM3-ECKO mice; details: mouse, in vivo
# Protocol: Sulindac sulfide (Sigma) and sulindac sulfone (Sigma) were both dissolved in DMSO and further diluted 1:50 in corn oil. They were administered intragastrically, daily (30 mg/kg body weight), starting one day after the induction of recombination. The control mice were treated in parallel with vehicle only (corn oil plus 2% DMSO).
# [2] = system: CCM1 KO endothelial cells; experiment: Expression of EndMT markers in CCM1 KO endothelial cells in culture; type: cell-based, mouse
# Protocol: (§1) CCM1-ECKO and CCM2-ECKO have been obtained from CCM1-flox/flox and CCM2-flox/flox mice as described in details above for CCM3-ECKO mice, see also Maddaluno et al, 2013 and Boulday et al, 2011.
# (§2) RNA extraction was performed with RNeasy kits (74106; […]). The RNA (1 μg) was reverse transcribed with random hexamers (High Capacity cDNA Archive kits; Applied Biosystems). The cDNA was amplified with TaqMan gene expression assays (Applied Biosystems) using a 7900 HT thermocycler (ABI/Prism). For each sample, the expression levels were determined with the comparative threshold cycle (Ct) method, and normalized to the housekeeping genes encoding 18S and glyceraldehyde-3-phosphate dehydrogenase (GAPDH). For amplification, the following probes (Applied Biosystems) that have been validated to recognize the mouse transcripts in rtPCR were used: Axin2, Nkd1, Lef1, ccnd1, cMyc-Klf4, Ly6a, S100a4, Id1, Cdh2, Acta2, CD44. The probes to identify the CCM3 mRNA transcript were custom designed, as: forward, […] (SEQ ID No. 12); reverse, GCTCTGGCCGCTCAATCA (SEQ ID No. 13); reporter sequence, […] (SEQ ID No. 14).
# [3] = system: vascular lesions in the brain of CCM3-ECKO mice; experiment: Assessment of lesion burden in brains of CCM3-ECKO mice; type: in vivo, mouse; details: CCM3-ECKO pups dpn 9; 30 mg/kg intragastrically daily; controls 166.8±22 (sulfide study), 153.5±28 (sulfone study)
# Source text: (§3) The CCM3-flox/flox mice were generated at TaconicArtemis (Koeln, Germany). Two P-lox sequences were inserted that flank exons 4 and 5 of the murine CCM3 gene, to produce a loss-of-function mutation after excision by Ore recombinase. These CCM3-flox/flox mice were bred with Cdh5(PAC)-CreERT2 mice (Wang et al, 2010) for tamoxifen-inducible endothelial-cell-specific expression of Ore-recombinase and CCM3 gene recombination. The CCM3-flox/flox-Cdh5(PAC)-CreERT2 mice were further bred with BAT-gal mice (Maretto et al, 2003) to monitor the activation of b-catenin transcription signaling, and with Rosa 26-Enhanced […] Fluorescent Protein (EYFP) (Rosa26EYFP) mice (Srinivas et al, 2001) to monitor the expression of Ore-recombinase through the expression of EYFP. Tamoxifen (Sigma) was dissolved in corn oil and 10% ethanol (at 10 mg/ml), and then diluted 1:5 in corn oil before single intragastric administration to dpn 1-2 pups (35 mg/kg body weight), as described in^14. The control (wild-type) mice included CCM3-flox/flox-Cdh5(PAC)-CreERT2-BAT-gal mice treated with the vehicle used to dissolve the tamoxifen (corn oil plus 2% ethanol), and CCM3^+/+-Cdh5(PAC)-CreERT2-BAT-gal mice treated with tamoxifen.
# (§4) Brains and eyes from mice pups were fixed in 3% paraformaldehyde immediately after dissection, and this fixing was continued overnight at 4° C. The retinas were dissected from the eyes just before staining as the whole mount. Fixed brains were embedded in 4% low-melting-point agarose and sectioned along the sagittal axis ([…]) using a vibratome (1000 Plus, The Vibratome Company, St. Louis, Mo., US).
# For the classification and counting of lesions, entire brains from dpn 9 littermate pups were sectioned and immunostained for Pecam as described above and in the Methods. Sections were then examined under wide-field fluorescence microscopy (10× and 20×). Lesions were classified as described in^63 as mulberry (multiple cavernae, group of more than two contiguous cavernae), single caverna (single dilated vessel with maximal diameter accommodating more than 25 red blood cells), or telangiectases, tortuous small vessels with abnormally dilated lumen). The total numbers of lesions were calculated by summing all of the types of lesions.
# As the sections were […], a correction was applied to the number of mulberry lesions, which can span two sections. Therefore, the number of mulberry lesions was divided by […]. The lesions were counted and classified independently by two observers who were blinded to the treatments.
# The maximal diameter of the mulberry lesions and single cavernae was used for statistical comparison.
# [4] = system: CCM3-knockout endothelial cell line; experiment: Immunostaining of CCM3-knockout endothelial cell line; type: cell-based, mouse; details: 48 h
# Protocol: (§5) In some experiments, endothelial cell lines from the lungs of CCM3-flox/flox mice (8-10 weeks old) were immortalized in culture through retroviral expression of polyoma middle T gene^60. […] These cells were then maintained in culture for up to 25 passages without detectable changes in the effects of this CCM3 ablation.
# (§6) Drugs were added to confluent cells for 48 h before the indicated assays. The final concentrations used were: […] (all from Sigma-Aldrich). As all of these were dissolved in DMSO, control treatment (vehicle) was 0.1% DMSO final concentration, as for drug treatment.
# Cells cultured in vitro were fixed and stained as described previously^46.
# (§7) The following antibodies were used: anti-Pecam (hamster; MAB1398Z, Millipore); anti-b-galactosidase (chicken; ab9361, Abcam); anti-VE-cadherin (rat monoclonal; 550548, BD Biosciences); anti-VE-cadherin (goat; sc-6458, Santa Cruz); anti-active-b-catenin (mouse monoclonal clone 8E7) dephosphorylated on Ser37 and Thr41, Millipore); anti-total-b-catenin (mouse monoclonal; Cell Signaling); anti-S100a4 (rabbit; 07-2274, Millipore); anti-Klf4 (goat; AF3158, R&D); anti-CD44 (rat; 553131, BD Biosciences); anti-ID1 (rabbit; sc-488, Santa Cruz); anti-aSMA (mouse monoclonal; F3777, Sigma); anti-GFP (rabbit; A-6455, Invitrogen); anti-podocalyxin (goat; AF1556, R&D); anti-phospho-histone H3 (rabbit; ab51776, Millipore); anti-CCM3 (rabbit; Eurogentec); anti-p-Smad1 (rabbit; 9516, Cell Signaling); anti-endomucin (rabbit; sc-65495, Santa Cruz); anti-α-tubulin (mouse monoclonal; T9026, Sigma).
# [5] = system: platelets; details: cited from earlier work
# [6] = system: CCM3-knockout endothelial cell line; experiment: rtPCR of b-catenin target gene and progenitor/EndMT markers in CCM3-knockout endothelial cell line; type: cell-based, mouse; details: 48 h; 135 mM sulindac sulfide, 125 mM sulindac sulfone, 200 mM silibinin, 250 mM salinomycin
# Protocol: as §5, §6, §2
# [7] = system: CCM1 KO endothelial cells; experiment: Endothelial cell-to-cell contacts in CCM1 KO endothelial cells in culture; type: cell-based, mouse
# [8] = system: cyclooxygenase; details: reported; cited from earlier work
# [9] = system: b-catenin transcription activity in brain endothelial cells of CCM3-ECKO mice; experiment: Immunostaining of brain sections of CCM3-ECKO mice (b-gal reporter, progenitor/EndMT markers, VE-cadherin); type: in vivo, mouse; details: CCM3-ECKO pups, dpn 9
# Source text: as §3, §4
# Brain sections and retinas were stained as floating samples in 12-well and 96-well plates, respectively. They were blocked overnight at 4° C. in 1% fish-skin gelatin with 0.5% Triton X100 and 5% donkey serum in phosphate-buffered saline (PBS) containing 0.01% thimerosal. The samples were incubated overnight at 4° C. with the primary antibodies diluted in 1% fish-skin gelatin with 0.25% Triton X100 in PBS containing 0.01% thimerosal. Following washing with 0.1% Triton X100 in PBS, the secondary antibodies were added for 4 h at room temperature in 1% fish-skin gelatin with 0.25% Triton X100 in PBS containing 0.01% thimerosal. The incubation with DAPI was in PBS for 4 h, which was followed by several washes in PBS, post-fixating with 3% paraformaldehyde for 5 min at room temperature, and further washes in PBS. The brain sections were mounted in Vectashield with DAPI, and the coverslips fixed with nail varnish; the retinas were mounted in Prolong gold with DAPI.
# as §7
# [10] = system: cavernoma lesions in the brain of CCM1-ECKO mice; experiment: Cavernoma lesions in the brain of CCM1-ECKO mice; type: in vivo, mouse
# Source text: as §1
smiles,measurement,setting,value
"CC1=C(CC(=O)O)c2cc(F)ccc2/C1=C\c1ccc(S(C)(=O)=O)cc1 [sulindac sulfone, (Z)-5-Fluoro-2-methyl-1-[4-(methylsulfonyl)benzylidene]indene-3-acetic acid]",bleeding from vascular lesions or mortality versus vehicle-treated mice,[1],did not observe either increased bleeding from vascular lesions or mortality
same,expression of EndMT markers,[2],inhibits
same,expression of EndMT markers,[2]; listed as exisulind,inhibition
same,mean number (±SD) of vascular lesions per brain,[3],68.6±10
same,nuclear accumulation of active b-catenin / distribution to adherens junctions,[4],inhibited; also recorded: reduced
same,"overexpression of progenitor/EndMT marker proteins (Klf4, S100a4, Id1, CD44)",[4],strongly reduced; also recorded: inhibited
same,anti-platelet activity,[5],lacks anti-platelet activity
same,"inhibition of transcription of Axin2, Klf4 and S100a4 (rtPCR)",[6],greatest inhibition; also recorded: most effective
same,organization of endothelial cell-to-cell contacts,[7],induces re-organization
same,anti-cyclooxygenase activity,[8],devoid of anti-cyclooxygenase activity
same,VE-cadherin localization at endothelial cell-cell junctions in brain vessels,[9],restored its localization to cell-cell junctions
same,"expression of b-catenin target genes / progenitor and EndMT markers (Klf4, S100a4, Id1) in brain endothelium",[9]; immunostaining,reduced this nuclear reactivity; also recorded: inhibited
same,formation of cavernoma lesions in the brain,[10],inhibits
